Source: article PMC7317717, “Electrophysiological Characterization of Transport Across Outer‐Membrane Channels from Gram‐Negative Bacteria in Presence of Lipopolysaccharides” (Angewandte Chemie (International Ed. in English), 2020)
Where a name gives a salt, the structure may show the parent alone.

How the values were obtained:
Assay in all cases: single-channel electrophysiology, planar lipid bilayer, ion current blockage events
Assay type in all cases: binding
OmpF (OmpF-WT) [1] = molecular target: T1, OmpF (OmpF-WT) (Escherichia coli, UniProt P02931); conditions: purified OmpF without LPS; 250 uM compound; 200 mM KCl, 20 mM MES, pH 6.0; negative voltage (-50 mV stated for the OMV values)
T1 construct: purified wild-type OmpF, mature porin, homotrimer, reconstituted in planar lipid bilayer; OMV form overexpressed in E. coli BL21(DE3)omp8
T1 sequence (P02931 23-362): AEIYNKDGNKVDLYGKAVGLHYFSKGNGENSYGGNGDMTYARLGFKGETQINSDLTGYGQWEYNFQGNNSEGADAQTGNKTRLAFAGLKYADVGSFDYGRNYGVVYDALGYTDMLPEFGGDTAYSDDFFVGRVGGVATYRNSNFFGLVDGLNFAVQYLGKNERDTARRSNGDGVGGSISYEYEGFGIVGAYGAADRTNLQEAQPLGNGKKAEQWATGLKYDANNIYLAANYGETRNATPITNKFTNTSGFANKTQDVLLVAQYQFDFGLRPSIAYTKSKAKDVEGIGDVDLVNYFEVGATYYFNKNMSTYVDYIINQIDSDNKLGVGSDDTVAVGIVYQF
Description: single-channel electrophysiology, planar lipid bilayer, ion current blockage events on OmpF (OmpF-WT) | Higher event rates are found using purified OmpF.

OmpF (OmpF-WT) [2] = molecular target: T1, OmpF (OmpF-WT); conditions: purified OmpF without LPS; 250 uM compound; 200 mM KCl, 20 mM MES, pH 6.0; negative voltage (-50 mV stated for the OMV values); remark: listed apart in the source
OmpF (OmpF-WT) [3] = molecular target: T1, OmpF (OmpF-WT); conditions: purified OmpF; 10 uM compound; 1 M KCl, 20 mM MES, pH 6

SMILES	k on (OmpF (OmpF-WT) [1])	k off (OmpF (OmpF-WT) [2]) [s⁻¹]	event rate (OmpF (OmpF-WT) [3])
CCN1CCN(c2cc3c(cc2F)c(=O)c(C(=O)O)cn3C2CC2)CC1 [Enrofloxacin]	72,000 s^-1 M^-1	500	
NC[C@H]1O[C@H](O[C@H]2[C@H](O)[C@@H](O[C@H]3O[C@H](CO)[C@@H](O)[C@H](N)[C@H]3O)[C@H](N)C[C@@H]2N)[C@H](O)[C@@H](O)[C@@H]1O [Kanamycin sulfate]			Kanamycin sulfate permeation for both batches of preparation
